{"source": "patent US20210346359A1", "about": "“Use of CFTR Modulators For Treating Cerebrovascular Conditions” (Qanatpharma AG, priority 2018, published 2021)", "key": {"CFTR": {"molecular_target": "CFTR (Mus musculus, UniProt P26361)", "sequence (P26361 whole entry)": "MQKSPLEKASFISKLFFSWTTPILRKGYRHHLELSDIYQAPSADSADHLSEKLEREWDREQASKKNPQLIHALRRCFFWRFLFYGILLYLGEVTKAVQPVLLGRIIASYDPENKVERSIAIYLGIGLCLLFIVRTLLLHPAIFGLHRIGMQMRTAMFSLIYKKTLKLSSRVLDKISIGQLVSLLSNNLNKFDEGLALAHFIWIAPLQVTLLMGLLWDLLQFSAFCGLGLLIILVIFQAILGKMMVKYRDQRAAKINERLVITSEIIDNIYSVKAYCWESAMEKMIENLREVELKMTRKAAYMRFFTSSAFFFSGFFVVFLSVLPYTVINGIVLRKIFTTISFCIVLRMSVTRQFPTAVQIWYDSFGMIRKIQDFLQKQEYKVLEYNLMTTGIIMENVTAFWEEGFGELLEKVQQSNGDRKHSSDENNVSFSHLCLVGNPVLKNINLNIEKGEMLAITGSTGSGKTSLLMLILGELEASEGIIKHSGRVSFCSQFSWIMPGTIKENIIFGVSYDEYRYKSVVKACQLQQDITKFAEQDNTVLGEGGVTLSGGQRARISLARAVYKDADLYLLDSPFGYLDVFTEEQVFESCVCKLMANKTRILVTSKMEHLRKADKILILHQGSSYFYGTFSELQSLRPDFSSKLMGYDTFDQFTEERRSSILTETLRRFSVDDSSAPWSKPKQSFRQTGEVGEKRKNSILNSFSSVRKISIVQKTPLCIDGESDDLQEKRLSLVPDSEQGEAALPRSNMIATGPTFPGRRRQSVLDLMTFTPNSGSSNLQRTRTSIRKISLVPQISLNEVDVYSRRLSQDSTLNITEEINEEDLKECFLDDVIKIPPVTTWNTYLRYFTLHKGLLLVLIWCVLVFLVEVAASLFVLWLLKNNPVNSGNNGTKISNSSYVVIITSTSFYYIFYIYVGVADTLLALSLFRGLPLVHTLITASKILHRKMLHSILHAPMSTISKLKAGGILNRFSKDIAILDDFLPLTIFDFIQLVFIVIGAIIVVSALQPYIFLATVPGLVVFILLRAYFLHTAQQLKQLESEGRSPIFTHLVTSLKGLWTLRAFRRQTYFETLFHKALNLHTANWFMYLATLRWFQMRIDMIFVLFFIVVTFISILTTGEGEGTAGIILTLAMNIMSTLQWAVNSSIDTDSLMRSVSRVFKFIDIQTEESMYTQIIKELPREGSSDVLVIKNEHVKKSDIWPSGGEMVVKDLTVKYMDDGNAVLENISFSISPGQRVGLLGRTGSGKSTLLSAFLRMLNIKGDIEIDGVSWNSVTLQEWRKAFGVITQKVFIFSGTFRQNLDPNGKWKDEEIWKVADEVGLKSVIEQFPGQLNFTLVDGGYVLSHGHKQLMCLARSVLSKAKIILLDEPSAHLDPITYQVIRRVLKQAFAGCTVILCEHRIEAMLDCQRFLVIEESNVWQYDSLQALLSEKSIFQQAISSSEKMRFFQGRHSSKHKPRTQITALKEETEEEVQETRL", "assay": "CFTR protein in cerebral arteries of mice with heart failure", "type": "in vivo", "design": "Cerebral artery lysates were prepared by grinding artery samples in lysis buffer; from tissue; host or cells: cerebral arteries of male wild-type C57BL/6N mice (naïve, heart failure or subarachnoid hemorrhage models)", "settings": "6 weeks post-ligation, 3 mg/kg daily for 2 days", "method": "Western blots for CFTR were completed as previously described (12, 18). Cerebral artery lysates were prepared by grinding artery samples in lysis buffer containing 50 mM Tris (pH 7.3), 150 mM NaCl, 2 mM […], 0.1% Triton-X-100, 0.1% […] and protease inhibitors; the same lysis buffer was used to prepare cell culture lysates. Following lysis, the samples were centrifuged (10 minutes at 13,500 g; at 4° C.) to remove insoluble material. Immediately prior to polyacrylamide electrophoresis, additional SDS (to 2% final concentration), glycerol (to 2% final concentration), β-mercaptoethanol (to 2% final concentration) and dithiothreitol (2 mM final concentration) were added. Proteins were separated electrophoretically on 7% acrylamide gels and transferred onto polyvinylidene difluoride (PVDF) membranes. […]\nThe primary antibodies were conjugated with either peroxidase-labeled donkey anti-rabbit IgG (GE Healthcare Amersham (Piscataway, USA) cat# NA934) or peroxidase-labeled goat anti-mouse IgG (GE Healthcare Amersham cat# NA931) secondary antibodies. […] Developed films were evaluated densitometrically using “Image J” software (freely available from the NIH); digital images were evaluated with Image Lab software (Bio-Rad). […]"}, "[1]": {"tested_on": "posterior cerebral arteries", "assay": "Phenylephrine responses of isolated posterior cerebral arteries", "type": "in vivo, mouse", "method": "Isolation and functional assessment of resistance arteries: Mouse olfactory (a first branch of the anterior cerebral artery) and PCAs were carefully dissected, cannulated onto micropipettes, stretched to their in vivo lengths and pressurized to 45 mmHg, as previously described (3,6); mouse skeletal muscle resistance arteries were dissected from the cremaster muscle, cannulated and pressurized to 60 mmHg. All functional experiments were conducted in 3-morpholinopropanesulfonic acid (MOPS) buffered saline at 37° C. with no perfusion. Vasomotor responses to phenylephrine (5 μmol/L for posterior cerebral arteries, 10 μmol/L for cremaster skeletal muscle arteries) provided an assessment of vessel viability at the beginning and end of each experiment. Arteries failing to show ≥25% constriction to phenylephrine were excluded.\n(§1) Myogenic tone was calculated as the percent constriction in relation to the maximal diameter at each respective transmural pressure: tone (% of diamax)=[(diamax−diaactive)/diamax]×100, where diaactive is the vessel diameter in MOPS containing Ca^2+ and diamax is the diameter in Ca^2+-free MOPS. Analyses of vasomotor responses to phenylephrine used the same calculation, only in this case, diaactive represents the vessel diameter at steady state following application of the given agent and diamax represents the maximal diameter measured under Ca^2+-free conditions."}, "mice with heart failure": {"tested_on": "mice with heart failure", "assay": "MRI T2 mapping of cerebral edema in heart failure mice", "type": "in vivo, mouse", "settings": "HF mice, 3 mg/kg daily for 2 days", "method": "Magnetic resonance imaging-based edema measurement: Edema was assessed by quantitative T2 mapping (12), using a 7 Tesla micro-MRI system (Bruker Corporation Biospec 70/30 USR; Ettlingen, Germany). The T2 mapping acquisition generated quantitative T2 maps in 9 contiguous 2D axial slices, with 1 mm thickness, covering the volume from the fore-brain through to the hind-brain. T2 maps were generated from T2-weighted images at echo times from 12 to 384 ms, using in-line Bruker software, via linear regression of the logarithmically-transformed signal magnitudes and the echo times on a per voxel basis. The T2 values were extracted using MIPAV software, using manually drawn regions-of-interest placed within the fore-, middle- and hind-brain T2 maps."}, "[2]": {"tested_on": "posterior cerebral arteries", "assay": "Myogenic tone of isolated posterior cerebral arteries after in vivo treatment", "design": "species or system mouse", "description": "Myocardial infarction: HF was induced by surgical ligation of the left anterior descending coronary artery (3). Briefly, mice were anaesthetized with isoflurane, intubated with a 20-gauge angiocatheter and ventilated with room air. Under sterile conditions, the thorax and pericardium were opened, and the left anterior descending coronary artery was permanently ligated with 7-0 silk suture (Deknatel: Fall River, USA). In sham-operated controls, the thorax and pericardium were opened, but the left anterior descending coronary artery was not ligated. Following the procedure, the chest was closed and the mice were extubated upon spontaneous respiration. Posterior cerebral arteries (PCAs) were isolated 4-6 weeks post-infarction. […]\nMyogenic responses were elicited by step-wise 20 mmHg increases in transmural pressure from 20 mmHg to 80 mmHg (olfactory arteries) or 100 mmHg (posterior cerebral arteries and cremaster skeletal muscle resistance arteries). At each pressure step, vessel diameter (diaactive) was measured once a steady state was reached (5 min). Vessels requiring treatment (e.g., CFTR(inh)-172) were incubated with the reagent in MOPS for 30 min and myogenic responses were then assessed in the presence of that reagent. Following completion of all diaactive measurements, MOPS buffer was replaced with a Ca^2+-free version and maximal passive diameter (diamax) was recorded at each pressure step.\nas §1"}}, "note": "Entries after “also recorded” stand apart in the source; their conditions may differ."}
{"smiles": "O=C(Nc1ncc(C(c2ccccc2Cl)N2CCC(O)C2)s1)C1(c2ccc3c(c2)OCO3)CC1", "note": "(stereo not shown) [C18, 1-(benzo[d][1,3]dioxol-5-yl)-N-(5-((2-chlorophenyl)(3-hydroxypyrrolidin-1-yl)methyl)thiazol-2-yl)cyclopropanecarboxamide]", "values": [{"measurement": "cerebral artery CFTR protein expression in HF", "setting": "CFTR", "value": "restores; also recorded: eliminates this reduction"}, {"measurement": "phenylephrine dose-response relationship", "setting": "[1]; posterior cerebral arteries from CFTR knockout mice, 3 mg/kg i.p. daily for 2 days, 3 mg/kg", "value": "not affected; also recorded: does not alter"}, {"measurement": "phenylephrine dose-response relationship normalized to basal tone, HF vs HF+C18", "setting": "[1]; posterior cerebral arteries from HF mice, 3 mg/kg i.p. daily for 2 days, 3 mg/kg", "value": "curves overlap; also recorded: not significantly different"}, {"measurement": "phenylephrine dose-response relationship (tone), HF vs HF+C18", "setting": "[1]; posterior cerebral arteries from HF mice, 3 mg/kg i.p. daily for 2 days, not normalized, 3 mg/kg", "value": "significant difference"}, {"measurement": "phenylephrine responses", "setting": "[1]; posterior cerebral arteries from sham-operated mice, 3 mg/kg i.p. daily for 2 days, 3 mg/kg", "value": "does not affect; also recorded: does not alter"}, {"measurement": "log EC50 of phenylephrine response", "setting": "[1]; posterior cerebral arteries, HF+C18 group, log scale", "value": "−5.94±0.21"}, {"measurement": "cerebral edema (T2 relaxation times)", "setting": "mice with heart failure", "value": "neither HF nor C18 treatment in the context of HF induces evident edema; also recorded: does not induce edema; also recorded: Neither HF nor C18 treatment in HF mice induces an alteration"}, {"measurement": "posterior cerebral artery myogenic tone", "setting": "[2]; arteries from CFTR knockout mice, in vivo 3 mg/kg daily for 2 days", "value": "not susceptible; also recorded: not observed"}, {"measurement": "posterior cerebral artery myogenic tone", "setting": "[2]; arteries from HF mice, in vivo 3 mg/kg daily for 2 days", "value": "normalizes; also recorded: reduces"}, {"measurement": "posterior cerebral artery myogenic tone", "setting": "[2]; arteries from sham-operated mice, in vivo 3 mg/kg i.p. daily for 2 days", "value": "does not affect; also recorded: does not alter"}]}
